Common to all, as to format: cell-based
The test system of data set [1] is HIV-1(IIIB). Kind of data set: Inhibition of HIV-1 induced syncytium formation in CEM cells, wild type. To be noted: Table 2B, WT = HIV-1(IIIB), day 4, averages of 2 to 3 independent experiments; for EC50: Human immunodeficiency virus 1, IIIB, CCRF-CEM, 96 h, read-out: Antiviral Activity of Comparative Compounds EC50, WT. The text has this: (§1) CEM cells were obtained from the American Tissue Cell Culture Collection (Rockville, Md.). HIV-1(IIIB) was originally obtained from the culture supernatant of persistently HIV-1-infected H9 cells and was provided by R. C. Gallo and M. Popovic (National Cancer Institute, National Institutes of Health, Bethesda, Md.). […] 67: 5353-5359 (1993); HIV-1/Lys-138 ("Lys-138") was selected for resistance against TSAO-m^3T as described in Balzarini et al, Virology 192: 246-253 (1993) and Balzarini et al, Proc. Nat. Acad. Sci. USA 90: 6952-6956 (1993); HIV-1/181-Cys ("181-Cys") was selected for resistance against pyridinone L-697,661 as described in Balzarini et al, Virology 192: 246-253 (1993); and HIV-1/188-His ("188-His") was selected for resistance against HEPT as described in Balzarini et al, Mol. Pharmocol. 44: 694-701 (1993). 188-His was then further converted to HIV-1/188-Leu "188-Leu") upon further passage in cell culture in the absence of the HEPT.
(§2) CEM cells were suspended at ≈300,000 cells per ml of culture medium and infected with approximately 100 CCID50 (CCID50 being the 50% cell culture infective dose) of HIV-1(IIIB) or one of the HIV-1 RT mutant strains described above. Then 100 μl of the infected cell suspensions was added to 200 μl microtiter plate wells containing 100 μl of appropriate serial (5-fold) dilutions of the test compounds. The inhibitory effect of the test compounds on HIV-1 induced syncytium formation in CEM cells was examined microscopically on day 4 post infection.

The subject of data set [2] is HIV-1/100-Ile. Kind of data set: Inhibition of HIV-1 induced syncytium formation in CEM cells, RT mutant 100-Ile. Conditions: Human immunodeficiency virus 1, CCRF-CEM, 96 h, Table 2B, day 4, averages of 2 to 3 independent experiments, read-out: Antiviral Activity of Comparative Compounds EC50, 100-Ile.
Source text: as §1, §2

Data set [3] concerns HIV-1/103-Asn. The experiment in a line: Inhibition of HIV-1 induced syncytium formation in CEM cells, RT mutant 103-Asn. Conditions: Human immunodeficiency virus 1, CCRF-CEM, 96 h, Table 2B, day 4, averages of 2 to 3 independent experiments, read-out: Antiviral Activity of Comparative Compounds EC50, 103-Asn.
Source text: as §1, §2

For data set [4], the system named is HIV-1/106-Ala. Kind of data set: Inhibition of HIV-1 induced syncytium formation in CEM cells, RT mutant 106-Ala. Conditions: Table 2B, day 4, averages of 2 to 3 independent experiments; for EC50: Human immunodeficiency virus 1, CCRF-CEM, 96 h, read-out: Antiviral Activity of Comparative Compounds EC50, 106-Ala.
Source text: as §1, §2

Data set [5] relates to HIV-1/Lys-138. Kind of data set: Inhibition of HIV-1 induced syncytium formation in CEM cells, RT mutant 138-Lys. To be noted: Human immunodeficiency virus 1, CCRF-CEM, 96 h, Table 2B, day 4, averages of 2 to 3 independent experiments, read-out: Antiviral Activity of Comparative Compounds EC50, 138-Lys.
Source text: as §1, §2

For data set [6], the system named is HIV-1/181-Cys. The experiment in a line: Inhibition of HIV-1 induced syncytium formation in CEM cells, RT mutant 181-Cys. To be noted: Human immunodeficiency virus 1, CCRF-CEM, 96 h, Table 2B, day 4, averages of 2 to 3 independent experiments, read-out: Antiviral Activity of Comparative Compounds EC50, 181-Cys.
Source text: as §1, §2

Data set [7] has as its system HIV-1/188-Leu. Kind of data set: Inhibition of HIV-1 induced syncytium formation in CEM cells, RT mutant 188-Leu. Conditions: Human immunodeficiency virus 1, CCRF-CEM, 96 h, Table 2B, day 4, averages of 2 to 3 independent experiments, read-out: Antiviral Activity of Comparative Compounds EC50, 188-Leu.
Source text: as §1, §2

Data set [8] is described as follows: in vitro. To be noted: human, cem cells, CC50 (50% cytostatic concentration), Table 2B; CEM cell proliferation; averages of 2 to 3 independent experiments.
Source text: as §1
^b 50% cytostatic concentration (i.e., compound concentration require
to inhibit CEM cell proliferation by 50%)

The values below come from patent US5696151A, “Compounds useful for the inhibition of the replication of HIV-1 and HIV-1 mutants” (priority 1995, dated 1997).

Values after ≈ are worked out from the molar mass of the structure shown. Bounds are passed on as bounds.

In the case of `CC=CCOc1cc(NC(=S)c2ccsc2C)ccc1Cl` [Compound 1], the EC50 in data set [1] was found to be 0.0055 µg/mL (≈ 0.0163 µM); in data set [2] it was 0.048 µg/mL (≈ 0.142 µM); in data set [3], 0.048 µg/mL (≈ 0.142 µM); in data set [4] it was 0.023 µg/mL (≈ 0.0681 µM); in data set [5], 0.018 µg/mL (≈ 0.0533 µM); in data set [6] it was 0.03 µg/mL (≈ 0.0888 µM). Besides, the half-maximal effective concentration (EC50) in data set [7] turned out to be 0.65 µg/mL (≈ 1.92 µM). Also, the CC50 in data set [8] is 5.9 µg/mL (≈ 17.5 µM).
Take `CC=CCOc1cc(NC(=S)c2ccoc2C)ccc1Cl` [Compound 2]: the EC50 in data set [1] was 0.006 µg/mL (≈ 0.0186 µM); in data set [2] it was 0.048 µg/mL (≈ 0.149 µM); in data set [3] it was 0.023 µg/mL (≈ 0.0715 µM); in data set [4], 0.04 µg/mL (≈ 0.124 µM); in data set [5] it was 0.018 µg/mL (≈ 0.0559 µM); in data set [6], 0.075 µg/mL (≈ 0.233 µM). Moreover, the EC50 in data set [7] stood at 0.65 µg/mL (≈ 2.02 µM). For the same compound, half-maximal cytotoxicity in data set [8] (CC50) was put at 9 µg/mL (≈ 28 µM).
For `Cc1occc1C(=S)Nc1ccc(Cl)c(C=NOC(C)(C)C)c1` [Compound 3], the “Antiviral Activity of Comparative Compounds EC50, WT” value in data set [1] was 6.5 ng/mL. The half-maximal effective concentration (EC50) in data set [2] was 0.057 µg/mL (≈ 0.162 µM); in data set [3] it was 0.23 µg/mL (≈ 0.656 µM); in data set [5], 0.045 µg/mL (≈ 0.128 µM); in data set [6], 0.08 µg/mL (≈ 0.228 µM); in data set [7], 0.91 µg/mL (≈ 2.59 µM). Moreover, the “Antiviral Activity of Comparative Compounds EC50, 106-Ala” value in data set [4] is 0.03 µg/mL. Half-maximal cytotoxicity in data set [8] (CC50) was put at 5.8 µg/mL (≈ 16.5 µM).
Consider `CON=Cc1cc(NC(=S)c2ccoc2C)ccc1OC` [Compound 4], for which the EC50 in data set [1] amounted to 0.007 µg/mL (≈ 0.023 µM); in data set [2], 0.22 µg/mL (≈ 0.723 µM); in data set [3], 0.4 µg/mL (≈ 1.31 µM); in data set [4], 0.22 µg/mL (≈ 0.723 µM); in data set [5], 0.039 µg/mL (≈ 0.128 µM); in data set [6] it was 0.59 µg/mL (≈ 1.94 µM). Moreover, the EC50 in data set [7] is 0.93 µg/mL (≈ 3.06 µM). Besides, the CC50 in data set [8] is above 100 µg/mL.
On to `CC1=C(C(=S)Nc2ccc(Cl)c(C=NOC(C)(C)C)c2)CCCO1` [Compound 5], for which the EC50 was found to be 0.013 µg/mL (≈ 0.0354 µM) in data set [1]; 0.055 µg/mL (≈ 0.15 µM) in data set [2]; 0.08 µg/mL (≈ 0.218 µM) in data set [3]; 0.025 µg/mL (≈ 0.0681 µM) in data set [4]; 0.04 µg/mL (≈ 0.109 µM) in data set [5]; 0.025 µg/mL (≈ 0.0681 µM) in data set [6]. Besides, the EC50 in data set [7] is above 2 µg/mL. The compound further gave a CC50 in data set [8] of 10 µg/mL (≈ 27.3 µM).
Turning to `CC(C)C(OC(=O)c1cc(NC(=S)c2cccn2C)ccc1Cl)C(C)C` [Compound 100], the EC50 in data set [1] worked out at 0.03 µg/mL (≈ 0.0763 µM); in data set [2] it was 4 µg/mL (≈ 10.2 µM); in data set [4] it was 0.8 µg/mL (≈ 2.04 µM); in data set [5], 0.4 µg/mL (≈ 1.02 µM); in data set [6], 0.65 µg/mL (≈ 1.65 µM). Moreover, the CC50 in data set [8] was above 100 µg/mL.
`Cc1ccsc1C(=S)Nc1ccc(Cl)c(C(=O)OC(C(C)C)C(C)C)c1` [Compound 101]: the EC50 was 0.045 µg/mL (≈ 0.11 µM) in data set [1]; 3 µg/mL (≈ 7.32 µM) in data set [2]; 0.2 µg/mL (≈ 0.488 µM) in data set [4]; 0.33 µg/mL (≈ 0.805 µM) in data set [5]; 0.55 µg/mL (≈ 1.34 µM) in data set [6]. The compound further registered a CC50 in data set [8] of at least 100 µg/mL.
Take `Cc1occc1C(=S)Nc1ccc(Cl)c(C(=O)OC(C(C)C)C(C)C)c1` [Compound 102]: the EC50 in data set [1] was 0.03 µg/mL (≈ 0.0762 µM); in data set [2], 0.85 µg/mL (≈ 2.16 µM); in data set [4], 0.85 µg/mL (≈ 2.16 µM); in data set [5] it was 0.08 µg/mL (≈ 0.203 µM); in data set [6], 0.65 µg/mL (≈ 1.65 µM). Also, in data set [8], it took 3.7 µg/mL (≈ 9.39 µM) to reach half-maximal cytotoxicity (CC50).
`Cc1occc1C(=S)Nc1ccc(Cl)c(C(=O)OCC(C)C)c1` [Compound 103]: the EC50 was 0.01 µg/mL (≈ 0.0284 µM) in data set [1]; 0.19 µg/mL (≈ 0.54 µM) in data set [2]; 0.075 µg/mL (≈ 0.213 µM) in data set [4]; 0.06 µg/mL (≈ 0.171 µM) in data set [5]; 0.07 µg/mL (≈ 0.199 µM) in data set [6]. This compound also registered a CC50 in data set [8] of 8.5 µg/mL (≈ 24.2 µM).
On to `C=CCOC(=O)c1cc(NC(=S)c2ccoc2C)ccc1Cl` [Compound 104], for which the EC50 came out at 0.01 µg/mL (≈ 0.0298 µM) in data set [1]; 0.65 µg/mL (≈ 1.94 µM) in data set [2]; 0.4 µg/mL (≈ 1.19 µM) in data set [4]; 0.2 µg/mL (≈ 0.596 µM) in data set [5]; 0.37 µg/mL (≈ 1.1 µM) in data set [6]. Besides, half-maximal cytotoxicity in data set [8] (CC50) was put at 11 µg/mL (≈ 32.8 µM).
Turning to `Cc1occc1C(=S)Nc1ccc(Cl)c(C(=O)OCC2CC2)c1` [Compound 105], the EC50 is 0.015 µg/mL (≈ 0.0429 µM) in data set [1]; 0.4 µg/mL (≈ 1.14 µM) in data set [2]; 0.2 µg/mL (≈ 0.572 µM) in data set [4]; 0.085 µg/mL (≈ 0.243 µM) in data set [5]; 0.07 µg/mL (≈ 0.2 µM) in data set [6]. Besides, it took 6.7 µg/mL (≈ 19.2 µM) to reach half-maximal cytotoxicity in data set [8] (CC50).

In general, EC50 refers to the concentration at which the effect is half-maximal. The term CC50 denotes the concentration that lowers cell viability or growth by half.
